Test results: patent US7989433B2, “Substituted thieno[3,2-D]pyrimidines as melanin concentrating hormone receptor-1 antagonists” (Bristol-Myers Squibb Company, priority 2008, dated 2011)

Assays:
[1] = target: T1, mutated (E4Q, A5T) hMCHR1 receptor (Homo sapiens, UniProt Q99705, A5T/E4Q); test: Radioligand binding assay for assessment of MCHR1 activity; conditions: competition vs [Phe13,[125I]Tyr19]-MCH, HEK-293 membranes
T1 construct: expressed in transfected cells; host or cells: HEK-293 (stably transfected), membrane preparation
T1 sequence (Q99705 whole entry E4Q/A5T): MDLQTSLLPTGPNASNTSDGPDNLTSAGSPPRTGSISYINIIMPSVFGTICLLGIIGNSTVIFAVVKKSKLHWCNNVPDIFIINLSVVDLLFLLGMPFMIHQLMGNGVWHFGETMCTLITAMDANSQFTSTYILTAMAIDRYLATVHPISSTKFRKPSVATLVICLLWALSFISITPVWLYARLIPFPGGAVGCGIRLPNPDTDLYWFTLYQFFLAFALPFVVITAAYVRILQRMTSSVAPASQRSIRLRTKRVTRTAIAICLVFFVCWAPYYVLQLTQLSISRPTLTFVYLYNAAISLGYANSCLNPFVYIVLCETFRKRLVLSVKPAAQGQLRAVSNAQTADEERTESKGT
Excerpt: Compounds of the present invention, namely Compounds IA and IB of the invention, and Compounds a to f (prepared as described in U.S. Patent Publication No. 2007/0093509 A1 published Apr. 26, 2007), were initially characterized in an in vitro binding assay to determine their Ki or ability to antagonize binding of a peptide agonist to the human melanin concentrating hormone receptor (MCHR1).
Radioligand Binding Assay for Assessment of MCHR1 Activity
Membranes from stably transfected HEK-293 cells expressing a mutated (E4Q, A5T) hMCHR1 receptor were prepared by dounce homogenization and differential centrifugation. Binding experiments were carried out with 0.5-1.0 ug of membrane protein incubated in a total of 0.2 ml in 25 mM HEPES (pH 7.4) with 10 mM MgCl2, 2 mM EGTA, and 0.1% BSA (Binding Buffer) for 90 min. For competition binding assays, reactions were carried out in the presence of with 0.06-0.1 nM [Phe^13, [^125I]Tyr^19]-MCH and increasing concentrations of unlabeled test molecules. Reactions were terminated by rapid vacuum filtration over 96 well-GFC Unifilter plates pre-coated with 0.075 ml binding buffer containing 1% BSA, and washed 3 times with 0.4 ml of Phospho-buffered Saline (pH 7.4) containing 0.01% TX-100, Filters were dried, 0.05 ml MicroScint 20 was added to each well and radioactivity was subsequently quantified by scintillation counting on a TOPCOUNT® microplate scintillation counter (Packard). Inhibitory constants were determined by nonlinear least squares analysis using a four parameter logistic equation.

[2] = Rat PK model / eight hour PK study after oral prodrug ester; format: in vivo; conditions: Sprague-Dawley; for AUC: blood, 10 mg/kg oral prodrug ester, 8 hr AUC of bio-active substance, no unit in table (b280 micromole*hr); for Kp: brain and plasma, 10 mg/kg oral dose of amino acid ester prodrug (valine or glycine), bio-active substance
Protocol: The relative ability of the prodrug to enhance exposure (bioavailability) was assessed in an eight hour PK study using cannulated SPRAGUE DAWLEY® (CD, Charles River Breeding Laboratory) rats. The compounds (parent and pro-drug esters) were administered p.o. at 2.0 ml/kg as a suspension in 0.5% methyl cellulose, 0.1% Tween 80 in water at 10 mg/kg p.o. Blood samples were taken at 1, 2, 4 and 8 hr. After determination of parent concentration, an AUC was calculated for the eight hour study.

MCHR [3] = target: T2, MCHR (Rattus norvegicus, UniProt P97639); test: Assessment of in vivo MCHR activity in young growing rats (four day efficacy model); conditions: for Efficacy at 30 mg/kg (weight loss in young growing rats): 30 mg/kg daily p.o. of ester prodrug, four day model; for Weight Reduction versus Vehicle: young growing rats
T2 construct: from tissue; host or cells: whole animal: male Sprague Dawley / Charles River rats
T2 sequence (P97639 whole entry): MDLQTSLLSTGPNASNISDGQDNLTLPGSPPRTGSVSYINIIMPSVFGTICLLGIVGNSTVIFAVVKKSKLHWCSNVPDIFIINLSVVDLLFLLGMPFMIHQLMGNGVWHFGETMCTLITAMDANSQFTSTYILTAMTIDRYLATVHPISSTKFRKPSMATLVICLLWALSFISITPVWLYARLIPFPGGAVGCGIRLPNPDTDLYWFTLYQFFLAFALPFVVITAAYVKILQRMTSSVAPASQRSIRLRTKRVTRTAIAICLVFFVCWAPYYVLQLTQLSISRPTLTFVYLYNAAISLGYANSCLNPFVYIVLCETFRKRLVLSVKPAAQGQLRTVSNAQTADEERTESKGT
Protocol: Male SPRAGUE DAWLEY® (CD, Charles River Breeding Laboratory) rats weighing approximately 240 grams were place in individual plastic cages with ALPHADRI® bedding. The room was maintained at 72° F. and 50% humidity, and a 12/12 light dark cycle with lights out at 1600 hours. The rats were conditioned for 5 days prior to the start of the study to having a choice of foods. A normal chow (HARLAN TEKLAD®, 2018) that contains 18% protein, 5% fat and 73% carbohydrate and a high fat high sugar diet (Research Diets (D2327)) that contains 20% protein, 40% fat and 40% carbohydrate where the carbohydrate is entirely sucrose and the fat is soybean and coconut oil. […] Body weight and consumption of both kinds of food as well as water intake were measured daily. Water was available ad lib throughout the study. Food consumption is presented as daily caloric consumption which is the sum of grams of chow multiplied by the Kcal per gram (3.5) plus grams of high fat high sugar multiplied by Kcal per gram (4.59).
Baseline body weight was measured prior to drug treatment on day 0 of the study. Baseline food consumption was the average of the 3 days prior to the first drug treatment. […] All data were evaluated using ANOVA and Fishers PLSD statistics.

[4] = One month rat study, formation of biliary lesions; format: in vivo; conditions: for biliary lesion formation in rats: doses up to 300 mg/kg for a month; for Formation of Biliary Lesions: rats
Excerpt: Further investigation established that the toxic agent was a metabolite arising from in vivo oxidative hydroxylation of the alkyl chain containing the tertiary carbinol moiety of compound f.

hepatocytes [5] = test: Hepatocyte clearance, human; format: in vitro ADME
Excerpt: As a consequence the projected human half-life for these two compounds was predicted to be 20 to 40 hr.

[6] = Full PK study in dog (half-life); conditions: in vivo
[7] = system: cytochrome P450 enzymes (rat microsomal); test: Metabolic stability versus rat microsomal oxidative degradation; conditions: rat microsomal oxidative degradation mediated by cytochrome P450
MCHR [8] = target: T2, MCHR; test: Assessment of MCHR in vivo activity in mature obese rats; conditions: dosed as prodrug
Protocol: Male rats, obtained from Charles River Laboratories weighing 250-300 g, were singly housed in plastic cages on a 12 hour light, 12 hour dark cycle with lights out at 1 pm. The animal room was maintained at 72 degrees F. and 50% humidity. The rats were made obese by giving them simultaneous access to two different diets, HARLAN TEKLAD® rat chow (standard chow) and Research Diets D12327 (a high fat, high carbohydrate, highly palatable diet). The Research Diets chow is comprised of 40% vegetable fat, 40% carbohydrate (sucrose) and 20% protein. The Harlan diet is comprised of 5% fat (soybean oil), 67% carbohydrate (starch) and 22% protein. The normal Harlan rat diet used contains 3.4 kcal/gram of diet, and Research Diet #12327 contains 4.59 kcal/gram. The rats were on the choice diet regime for 10 weeks in order to induce obesity. Once started on the choice diet regime the rats are maintained on it for the duration of the study. Baseline feeding and body weight were collected and used to sort animals into treatment groups. Mean rat weight at the start of the choice diet was 250 grams. The mean weight of the rats at the start of chronic dosing was 661.7±6.3 (mean±sem) grams.
Rats were dosed orally one hour before the start of the dark cycle. Body weight and food consumption were measured daily at the time of dosing. Food consumption was converted to Kcal consumed. Total Kcal consumed was determined by adding the Kcal consumed for each diet and this was determined by multiplying grams of each diet consumed times the Kcal/gram. […]

hepatocytes [9] = test: Hepatocyte clearance, dog; format: in vitro ADME
[10] = 3 mg/kg p.o. daily day 0-4, dosed as prodrug
[11] = 10 mg/kg p.o. daily day 0-4, dosed as prodrug
[12] = 30 mg/kg p.o. daily day 0-4, dosed as prodrug

Compound	Ki [1] [nM]	AUC [2] [µM·h]	Kp [2]	Efficacy at 30 mg/kg (weight loss in young growing rats) (MCHR [3]) [%]	Formation of Biliary Lesions [4]	hepatocyte clearance (hepatocytes [5])	half-life ([6]; Dog Half-life (hr)) [h]	Rat Microsomal Stability [7] [%]	also measured
COc1cc(-n2cnc3cc(-c4ccc(Cl)cc4)sc3c2=O)ccc1OC[C@H](OC(=O)CN)C1CC1.Cl [Example 5, (R)-2-(4-(6-(4-Chlorophenyl)-4-oxothieno[3,2-d]pyrimidin-3(4H)-yl)-2-methoxy-phenoxy)-1-cyclopropylethyl 2-aminoacetate, hydrochloride salt]	–	–	–	–	–	–	–	–	melting point: 218 to 220 °C
COc1cc(-n2cnc3cc(-c4ccc(Cl)cc4)sc3c2=O)ccc1OC[C@H](O)C1CC1 [IA, (R)-6-(4-Chlorophenyl)-3-(4-(2-cyclopropyl-2-hydroxyethoxy)-3-methoxyphenyl)-thieno[3,2-d]pyrimidin-4(3H)-one]	10	24.5	0.9	6.4	No	approximated that of dog	< 20	92	biliary lesion formation in rats [4]: neither compound IA nor compound IB induced biliary lesion formation
COc1cc(-n2cnc3cc(-c4ccc(Cl)cc4)sc3c2=O)ccc1OCC1(O)CC(F)(F)C1 [IB, 6-(4-Chlorophenyl)-3-(4-((3,3-difluoro-1-hydroxycyclobutyl)methoxy)-3-methoxyphenyl)thieno[3,2-d]pyrimidin-4(3H)-one]	18	38	2.5	7.9	No	approximated that of dog	< 20	95	Weight Reduction versus Vehicle (MCHR [3]; 1 mg/kg p.o. daily day 0-4, dosed as prodrug): 2.9%; Weight Reduction versus Vehicle (MCHR [3]; [10]): 4.5%; Weight Reduction versus Vehicle (MCHR [3]; [11]): 6.4%; Weight Reduction versus Vehicle (MCHR [3]; [12]): 7.9%; Weight Reduction versus Vehicle (MCHR [8]; 0.03 mg/kg oral chronic dosing): 1.7%; Weight Reduction versus Vehicle (MCHR [8]; 0.1 mg/kg oral chronic dosing): 3.2%; Weight Reduction versus Vehicle (MCHR [8]; 0.3 mg/kg oral chronic dosing): 5.0%; Weight Reduction versus Vehicle (MCHR [8]; 1 mg/kg oral chronic dosing): 6.6%; Weight Reduction versus Vehicle (MCHR [8]; 3 mg/kg oral chronic dosing): 7.8%; biliary lesion formation in rats [4]: neither compound IA nor compound IB induced biliary lesion formation; half-life [6]: 16 h
COc1cc(-n2cnc3cc(-c4ccc(Cl)cc4)sc3c2=O)ccc1OCC1(O)CCC1 [a]	–	–	–	–	–	–	–	20	–
COc1cc(-n2cnc3cc(-c4ccc(Cl)cc4)sc3c2=O)ccc1OCC1(O)COC1 [b]	–	–	–	0	Yes	–	–	40	–
CCC(O)COc1ccc(-n2cnc3cc(-c4ccc(Cl)cc4)sc3c2=O)cc1OC (stereo not drawn) [c]	12	14.5	3.2	4.1	No	–	–	60	–
COc1cc(-n2cnc3cc(-c4ccc(Cl)cc4)sc3c2=O)ccc1OCC(O)CC(F)(F)F (stereo not drawn) [d]	11	20	1.1	3.2	No	–	–	100	–
CCS(=O)(=O)CC(O)COc1ccc(-n2cnc3cc(-c4ccc(Cl)cc4)sc3c2=O)cc1OC (stereo not drawn) [e]	8	46	0.09	4.5	No	–	–	100	–
COc1cc(-n2cnc3cc(-c4ccc(Cl)cc4)sc3c2=O)ccc1OCC(C)(C)O [f]	12	45	2	8.2	Yes	very slow	> 200	98	biliary lesions in rats ([4]; 30 mg/kg for a month): developed obstructive hepatic biliary lesions; hepatocyte clearance (hepatocytes [9]): very slow
(R)-6-(4-Chlorophenyl)-3-(4-(2-cyclopropyl -2-hydroxyethoxy)-3-methoxyphenyl)-thieno[3,2-d]pyrimidin-4(3H)-one [IA]	–	–	–	–	–	–	–	–	Weight Reduction versus Vehicle (MCHR [3]; [10]): 2.6%; Weight Reduction versus Vehicle (MCHR [3]; [11]): 3.5%; Weight Reduction versus Vehicle (MCHR [3]; [12]): 6.4%; Weight Reduction versus Vehicle (MCHR [8]; 0.3 mg/kg oral chronic dosing): 2.09%; Weight Reduction versus Vehicle (MCHR [8]; 1 mg/kg oral chronic dosing): 3.90%; Weight Reduction versus Vehicle (MCHR [8]; 3 mg/kg oral chronic dosing): 3.57%; Weight Reduction versus Vehicle (MCHR [8]; 10 mg/kg oral chronic dosing): 8.42%; Weight Reduction versus Vehicle (MCHR [8]; 30 mg/kg oral chronic dosing): 10.16%
